From ChEMBL document CHEMBL1201862, “PubChem BioAssay data set” (2004)
Activity calls are given as the source filed them.

Legend:
[1] = molecular target: C-C chemokine receptor type 6 (Homo sapiens, UniProt P51684); assay: antagonism of CCR6 beta-arrestin recruitment – cell-based, luminescent beta-arrestin readout, dose response (AID 504728); type: functional
Beta-galactosidase = Beta-galactosidase (Escherichia coli, UniProt Q8VNN2); assay: detection-enzyme interference by beta-gal modulators – biochemical, E. coli enzyme, set 3, artefact control for CCR6 antagonist project, dose response (AID 504712); type: functional
Beta-galactosidase, sequence (Q8VNN2 whole entry): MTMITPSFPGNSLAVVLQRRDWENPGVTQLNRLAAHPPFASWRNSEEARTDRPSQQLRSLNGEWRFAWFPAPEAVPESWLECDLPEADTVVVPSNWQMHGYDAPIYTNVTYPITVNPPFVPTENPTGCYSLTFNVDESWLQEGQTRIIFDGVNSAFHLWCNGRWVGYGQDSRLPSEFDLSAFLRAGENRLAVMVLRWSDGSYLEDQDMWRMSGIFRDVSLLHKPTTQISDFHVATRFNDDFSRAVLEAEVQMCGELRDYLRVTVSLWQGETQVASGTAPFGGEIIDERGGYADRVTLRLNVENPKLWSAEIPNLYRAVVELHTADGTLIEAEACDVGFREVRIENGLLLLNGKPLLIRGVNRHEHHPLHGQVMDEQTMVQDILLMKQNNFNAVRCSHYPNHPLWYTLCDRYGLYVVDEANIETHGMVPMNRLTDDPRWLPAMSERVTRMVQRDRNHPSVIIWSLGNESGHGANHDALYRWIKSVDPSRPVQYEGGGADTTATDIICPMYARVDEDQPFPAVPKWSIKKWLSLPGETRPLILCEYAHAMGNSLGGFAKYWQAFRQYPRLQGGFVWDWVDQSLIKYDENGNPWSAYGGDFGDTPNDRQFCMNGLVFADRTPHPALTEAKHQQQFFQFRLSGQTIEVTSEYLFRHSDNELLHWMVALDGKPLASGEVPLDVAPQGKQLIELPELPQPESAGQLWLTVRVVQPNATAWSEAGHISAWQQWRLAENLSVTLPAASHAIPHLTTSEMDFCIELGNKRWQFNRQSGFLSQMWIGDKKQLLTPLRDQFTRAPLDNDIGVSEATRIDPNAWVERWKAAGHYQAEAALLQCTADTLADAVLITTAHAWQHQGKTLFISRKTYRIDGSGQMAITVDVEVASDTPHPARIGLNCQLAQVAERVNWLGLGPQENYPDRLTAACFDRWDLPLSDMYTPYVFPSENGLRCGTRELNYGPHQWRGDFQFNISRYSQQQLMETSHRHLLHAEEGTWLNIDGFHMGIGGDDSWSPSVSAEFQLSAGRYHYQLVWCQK

[2] = molecular target: T1, Mannose-6-phosphate isomerase (Homo sapiens, UniProt P34949); assay: MPI inhibition at elevated mannose 6-phosphate – biochemical, fluorescence intensity, high mannose 6-phosphate, primary screen (AID 1220)
T1 sequence (P34949 whole entry): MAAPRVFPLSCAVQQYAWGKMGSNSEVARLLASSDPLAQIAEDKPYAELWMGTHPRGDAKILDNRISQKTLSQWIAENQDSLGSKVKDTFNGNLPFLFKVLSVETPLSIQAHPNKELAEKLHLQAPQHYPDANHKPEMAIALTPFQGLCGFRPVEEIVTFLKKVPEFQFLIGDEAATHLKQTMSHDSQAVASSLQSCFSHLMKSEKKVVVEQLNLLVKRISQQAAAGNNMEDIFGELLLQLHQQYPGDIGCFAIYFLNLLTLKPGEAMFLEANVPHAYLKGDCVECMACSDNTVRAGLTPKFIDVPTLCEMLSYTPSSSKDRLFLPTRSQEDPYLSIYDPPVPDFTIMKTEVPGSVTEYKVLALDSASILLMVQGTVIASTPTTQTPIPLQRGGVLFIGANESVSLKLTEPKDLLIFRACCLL

[3] = molecular target: T1, Mannose-6-phosphate isomerase; assay: MPI enzyme activity inhibition – biochemical, fluorescence intensity, coupled assay, primary screen (AID 1209)
[4] = molecular target: T2, Heat shock factor protein 1 (Mus musculus, UniProt P38532); assay: enhancement of HSF1-driven luciferase signal – cell-based, NIH3T3, luminescence, dose retest, confirmation (AID 435004); type: functional;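 note: stress induced by proteasome inhibitor MG132 added 30 min after compound; luciferase reporter driven by HSF1 response element in NIH3T3 cells; actives raise luminescence as potentiators of the MG132 stress response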
T2 sequence (P38532 whole entry): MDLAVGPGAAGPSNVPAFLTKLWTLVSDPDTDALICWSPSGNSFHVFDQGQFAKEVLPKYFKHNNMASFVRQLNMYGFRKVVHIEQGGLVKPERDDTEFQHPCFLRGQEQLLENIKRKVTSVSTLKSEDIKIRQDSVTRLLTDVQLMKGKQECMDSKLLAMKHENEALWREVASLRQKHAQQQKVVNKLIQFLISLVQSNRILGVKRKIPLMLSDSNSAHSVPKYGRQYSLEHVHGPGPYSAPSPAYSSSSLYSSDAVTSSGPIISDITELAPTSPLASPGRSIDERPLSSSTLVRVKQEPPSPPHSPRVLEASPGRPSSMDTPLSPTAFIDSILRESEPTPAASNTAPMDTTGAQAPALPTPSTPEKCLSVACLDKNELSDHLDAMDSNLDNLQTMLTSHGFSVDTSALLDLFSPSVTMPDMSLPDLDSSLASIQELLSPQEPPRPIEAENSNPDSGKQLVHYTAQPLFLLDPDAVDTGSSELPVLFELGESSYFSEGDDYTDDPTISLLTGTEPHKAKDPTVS

[5] = microbe, parasite or virus in culture; type: functional; conditions: Mycobacterium tuberculosis
Galanin receptor type 2 = Galanin receptor type 2 (Homo sapiens, UniProt O43603); assay: Dose Response cell-based high-throughput screening assay to identify antagonists of galanin receptor 2 (GALR2). [Related pubchem assays: 828, 866 ]; type: functional
Galanin receptor type 2, sequence (O43603 whole entry): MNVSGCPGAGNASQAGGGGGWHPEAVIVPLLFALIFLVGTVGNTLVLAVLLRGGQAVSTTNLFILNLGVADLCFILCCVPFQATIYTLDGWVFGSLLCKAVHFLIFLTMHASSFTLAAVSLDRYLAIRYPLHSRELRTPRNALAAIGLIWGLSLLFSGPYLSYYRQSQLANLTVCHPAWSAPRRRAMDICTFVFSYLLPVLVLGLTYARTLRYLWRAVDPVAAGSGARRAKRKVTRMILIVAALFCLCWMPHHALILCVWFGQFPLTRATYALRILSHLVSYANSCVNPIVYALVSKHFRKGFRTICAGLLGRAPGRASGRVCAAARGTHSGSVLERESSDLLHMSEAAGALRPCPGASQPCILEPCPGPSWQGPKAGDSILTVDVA

[6] = Cytotoxicity screening for potential Inhibitors of Bacterial Capsule Biogenesis. [Related pubchem assays (depositor defined):AID488970]; type: functional
X-box-binding protein 1 = X-box-binding protein 1 (Homo sapiens, UniProt P17861); type: functional, Cricetulus griseus;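 note: confirmatory dose-response counter-screen serving a CHOP assay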
X-box-binding protein 1, sequence (P17861 whole entry): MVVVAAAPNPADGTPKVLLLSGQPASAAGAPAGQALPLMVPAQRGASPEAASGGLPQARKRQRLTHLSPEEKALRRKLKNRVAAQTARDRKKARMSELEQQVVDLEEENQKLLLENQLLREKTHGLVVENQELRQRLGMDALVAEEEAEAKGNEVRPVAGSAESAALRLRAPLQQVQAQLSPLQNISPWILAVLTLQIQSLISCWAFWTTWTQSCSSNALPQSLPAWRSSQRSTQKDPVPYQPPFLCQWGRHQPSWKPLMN

[7] = molecular target: Lysosomal acid glucosylceramidase (Homo sapiens, UniProt P04062); assay: Dose response cell-based high throughput screening assay to identify enhancers of beta-glucosidase activity. [Related pubchem assays: 784 ]; type: functional
Lysosomal acid glucosylceramidase, sequence (P04062 whole entry): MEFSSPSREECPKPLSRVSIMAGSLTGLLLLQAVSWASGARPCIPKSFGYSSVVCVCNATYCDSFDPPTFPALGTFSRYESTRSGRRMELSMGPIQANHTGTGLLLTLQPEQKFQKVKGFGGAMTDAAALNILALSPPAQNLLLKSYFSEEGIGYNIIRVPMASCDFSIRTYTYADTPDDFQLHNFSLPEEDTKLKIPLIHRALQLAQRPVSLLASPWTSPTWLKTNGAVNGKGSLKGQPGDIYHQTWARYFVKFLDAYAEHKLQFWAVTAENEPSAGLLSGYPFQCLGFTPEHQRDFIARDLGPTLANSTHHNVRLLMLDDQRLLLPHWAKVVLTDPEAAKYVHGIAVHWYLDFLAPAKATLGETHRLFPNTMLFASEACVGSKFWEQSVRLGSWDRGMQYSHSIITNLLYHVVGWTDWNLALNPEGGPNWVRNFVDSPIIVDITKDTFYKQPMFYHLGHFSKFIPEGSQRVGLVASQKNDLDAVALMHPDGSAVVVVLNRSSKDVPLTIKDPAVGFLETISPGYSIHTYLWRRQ

[8] = molecular target: T2, Heat shock factor protein 1; assay: decrease of HSF1-responsive luciferase luminescence – cell-based, NIH3T3, dose retest, confirmation (AID 2382); type: functional;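 note: NIH3T3 fibroblasts with HSF1-driven luciferase reporter stressed by proteasome inhibitor MG132; luminescence from HSF1-driven luciferase expression after 8 hours of MG132 stress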
HEK293 [9] = assay: PMA/Ionomycin induced NF-kB luciferase assay in 293- NF-kB-Luc stable cells. [Related pubchem assays: 1299, 1270, 1295, 1375, 1287, 1281, 1293, 1291, 1289, 1280, 465, 1364, 1282, 1372, 1365, 1370, 1367, 1366, 1269, 1373, 1292, 1290, 1302, 1371, 1283, 1271, 1294, 1374, 1368, 1369 ]; type: functional, cell-based; conditions: Homo sapiens
HEK293 [10] = assay: Cytotoxicity assay in HEK293 cells. [Related pubchem assays (depositor defined):AID1266, AID1269, AID1270, AID1271, AID1280, AID1281, AID1282, AID1283, AID1287, AID1289, AID1290, AID1291, AID1292, AID1293, AID1294, AID1295, AID1299, AID1302, AID1364, AID1365, AID1366, AID1367, AID1369, AID1370, AID1371, AID1372, AID1373, AID1374, AID1375, AID1384 …; type: functional, cell-based; conditions: Homo sapiens
Jurkat = assay: blockers of NF-kB activation in T cells – Jurkat, luciferase reporter, luminescence, B- and T-cell, dose response (AID 489004); type: functional, cell-based; conditions: Homo sapiens;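 note: NF-kB luciferase reporter Jurkat cells stimulated with PMA plus ionomycin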
[11] = HEK-293T viability loss, compound-treated – cell-based, uHTS hits, cytotoxicity control for B/T-cell NF-kB inhibitor project, dose response (AID 489019); type: functional;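 note: IC50 reflects cytotoxicity as loss of cell viability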
HT-1080 = assay: HT1080 cell viability loss – fluorescence readout (AID 620); type: functional, cell-based; conditions: Homo sapiens
[12] = molecular target: T3, Luciferin 4-monooxygenase (Photinus pyralis, UniProt P08659); assay: Counter Screen for Luciferase-based Assay Positives. [Related pubchem assays: 620, 618, 411 ]
T3 sequence (P08659 whole entry): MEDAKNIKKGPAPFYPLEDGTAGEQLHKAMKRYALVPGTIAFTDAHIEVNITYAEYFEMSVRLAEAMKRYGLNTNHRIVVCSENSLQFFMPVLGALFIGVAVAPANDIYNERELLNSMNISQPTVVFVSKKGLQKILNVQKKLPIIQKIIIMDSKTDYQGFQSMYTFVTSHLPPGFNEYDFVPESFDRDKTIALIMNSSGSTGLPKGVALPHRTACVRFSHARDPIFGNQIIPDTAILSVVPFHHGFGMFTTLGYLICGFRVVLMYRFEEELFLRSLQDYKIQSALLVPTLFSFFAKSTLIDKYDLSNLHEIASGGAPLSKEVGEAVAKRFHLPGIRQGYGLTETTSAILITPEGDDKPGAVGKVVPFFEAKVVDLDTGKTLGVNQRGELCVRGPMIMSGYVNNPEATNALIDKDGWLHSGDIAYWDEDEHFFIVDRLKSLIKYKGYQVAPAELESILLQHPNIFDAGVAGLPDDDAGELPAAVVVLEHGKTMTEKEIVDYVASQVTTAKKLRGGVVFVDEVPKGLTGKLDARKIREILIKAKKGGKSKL

[13] = molecular target: T4, Microphthalmia-associated transcription factor (Homo sapiens, UniProt O75030); assay: reducers of TRPM1 reporter luminescence, concentration series – cell-based, SK-MEL-5, cherry-picked, set 3, MITF inhibitor project, dose response (AID 493073); type: functional;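 note: SK-MEL-5 melanoma cells with luciferase driven by the MITF target TRPM1 promoter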
T4 sequence (O75030 whole entry): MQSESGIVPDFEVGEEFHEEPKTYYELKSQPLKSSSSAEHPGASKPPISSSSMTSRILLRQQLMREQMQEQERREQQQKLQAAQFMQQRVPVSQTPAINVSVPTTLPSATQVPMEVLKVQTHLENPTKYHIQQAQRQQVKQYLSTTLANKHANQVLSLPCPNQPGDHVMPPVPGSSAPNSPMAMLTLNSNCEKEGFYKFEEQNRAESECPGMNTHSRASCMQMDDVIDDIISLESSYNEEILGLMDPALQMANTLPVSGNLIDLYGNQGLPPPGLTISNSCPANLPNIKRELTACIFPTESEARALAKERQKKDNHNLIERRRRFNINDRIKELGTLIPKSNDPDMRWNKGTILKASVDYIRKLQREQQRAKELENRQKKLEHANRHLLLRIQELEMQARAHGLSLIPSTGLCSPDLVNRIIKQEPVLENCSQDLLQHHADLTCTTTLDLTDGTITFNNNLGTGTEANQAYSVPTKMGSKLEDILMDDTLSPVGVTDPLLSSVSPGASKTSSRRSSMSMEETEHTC

[14] = molecular target: T3, Luciferin 4-monooxygenase; assay: In vitro luciferase assay using purified luciferase. [Related pubchem assays: 1299, 1270, 1295, 1375, 1287, 1281, 1293, 1291, 1289, 1280, 465, 1364, 1282, 1372, 1365, 1370, 1367, 1366, 1266, 1373, 1292, 1290, 1302, 1371, 1283, 1271, 1294, 1374, 1368, 1369 ]
[15] = molecular target: T5, Eukaryotic translation initiation factor 2-alpha kinase 3 (Homo sapiens, UniProt Q9NZJ5); assay: Dose response cell-based high-throughput screening assay to measure PERK inhibition. [Related pubchem assays: 1416 ]; type: functional
T5 sequence (Q9NZJ5 whole entry): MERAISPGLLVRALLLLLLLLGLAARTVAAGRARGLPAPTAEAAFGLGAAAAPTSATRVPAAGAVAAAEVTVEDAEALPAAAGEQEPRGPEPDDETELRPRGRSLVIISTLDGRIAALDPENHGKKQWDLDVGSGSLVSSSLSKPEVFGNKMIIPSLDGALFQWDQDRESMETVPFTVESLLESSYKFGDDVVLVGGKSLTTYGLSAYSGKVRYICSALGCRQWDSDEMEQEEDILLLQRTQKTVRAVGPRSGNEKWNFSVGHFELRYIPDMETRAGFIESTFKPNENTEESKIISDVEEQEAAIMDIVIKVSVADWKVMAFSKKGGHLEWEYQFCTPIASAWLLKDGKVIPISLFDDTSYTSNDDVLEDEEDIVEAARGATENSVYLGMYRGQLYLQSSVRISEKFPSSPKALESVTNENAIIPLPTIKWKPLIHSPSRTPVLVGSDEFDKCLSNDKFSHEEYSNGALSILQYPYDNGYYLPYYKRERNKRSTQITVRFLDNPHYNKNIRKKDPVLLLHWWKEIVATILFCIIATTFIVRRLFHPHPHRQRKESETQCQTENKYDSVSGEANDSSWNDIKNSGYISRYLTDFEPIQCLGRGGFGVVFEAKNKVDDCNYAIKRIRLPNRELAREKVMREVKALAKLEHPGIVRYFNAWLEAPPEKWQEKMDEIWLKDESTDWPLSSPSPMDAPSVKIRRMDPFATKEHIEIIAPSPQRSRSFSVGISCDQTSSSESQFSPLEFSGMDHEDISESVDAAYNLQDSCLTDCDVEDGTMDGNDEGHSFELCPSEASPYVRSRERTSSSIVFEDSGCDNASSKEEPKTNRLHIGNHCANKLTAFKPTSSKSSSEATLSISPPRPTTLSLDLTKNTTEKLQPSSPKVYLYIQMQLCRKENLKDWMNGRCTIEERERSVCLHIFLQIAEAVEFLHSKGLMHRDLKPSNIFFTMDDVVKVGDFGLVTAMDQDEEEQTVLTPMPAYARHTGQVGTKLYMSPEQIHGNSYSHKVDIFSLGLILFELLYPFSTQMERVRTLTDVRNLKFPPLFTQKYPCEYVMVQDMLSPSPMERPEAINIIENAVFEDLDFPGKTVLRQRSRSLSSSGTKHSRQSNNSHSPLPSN

[16] = molecular target: T5, Eukaryotic translation initiation factor 2-alpha kinase 3; assay: Counterscreen assay for PERK inhibitors: Dose response cell-based high throughput screening assay to measure inhibition of PERK at 6 hours. [Related pubchem assays: 1522, 1416 ]; type: functional
HeLa = assay: viability loss in HeLa cells – cell-based, 24 h, cherry-picked samples, cytotoxicity control, dose response (AID 504726); type: functional; conditions: Homo sapiens;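 note: potency for cytotoxicity as loss of luminescence signal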
Bcl-2-like protein 10 = Bcl-2-like protein 10 (Homo sapiens, UniProt Q9HD36); assay: Bcl-B/TR3 peptide binding disruption – biochemical, fluorescence polarization, FITC-TR3 peptide, selectivity assay for Bfl-1 inhibitor project, primary screen (AID 748);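 note: fluorescence polarization from a fluorescein-labelled TR3 peptide binding purified Bcl-B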
Bcl-2-like protein 10, sequence (Q9HD36 whole entry): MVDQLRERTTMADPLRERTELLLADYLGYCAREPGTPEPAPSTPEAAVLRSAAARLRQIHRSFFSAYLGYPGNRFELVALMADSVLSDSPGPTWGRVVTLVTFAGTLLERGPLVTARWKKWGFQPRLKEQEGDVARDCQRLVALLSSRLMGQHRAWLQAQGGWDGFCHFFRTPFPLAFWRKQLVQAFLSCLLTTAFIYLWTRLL

Estrogen receptor beta [17] = molecular target: T6, Estrogen receptor beta (Homo sapiens, UniProt Q92731); assay: blockers of SRC-3 recruitment to ERβ – biochemical, ELISA, streptavidin-HRP readout, orthogonal assay, confirmation (AID 1060)
T6 sequence (Q92731 whole entry, the tested form may be a part): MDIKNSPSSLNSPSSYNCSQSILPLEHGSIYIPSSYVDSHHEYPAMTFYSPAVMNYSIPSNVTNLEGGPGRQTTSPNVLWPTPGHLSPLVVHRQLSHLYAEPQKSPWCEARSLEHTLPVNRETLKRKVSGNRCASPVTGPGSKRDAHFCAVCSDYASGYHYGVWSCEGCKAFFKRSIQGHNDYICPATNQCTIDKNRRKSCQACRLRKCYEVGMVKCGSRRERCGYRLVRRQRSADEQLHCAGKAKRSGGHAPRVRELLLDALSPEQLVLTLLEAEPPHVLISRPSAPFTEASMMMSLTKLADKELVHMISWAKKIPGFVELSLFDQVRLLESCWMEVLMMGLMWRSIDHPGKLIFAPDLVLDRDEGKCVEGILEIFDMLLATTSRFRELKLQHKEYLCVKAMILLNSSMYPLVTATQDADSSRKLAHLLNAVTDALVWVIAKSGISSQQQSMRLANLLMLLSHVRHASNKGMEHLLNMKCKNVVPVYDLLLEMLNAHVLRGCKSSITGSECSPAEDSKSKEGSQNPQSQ

[18] = molecular target: T7, Carboxy-terminal domain RNA polymerase II polypeptide A small phosphatase 1 (Homo sapiens, UniProt Q9GZU7); assay: CTDSP1 inhibitors, concentration-response, biochemical, absorbance readout, ultra-high-throughput screen actives (AID 540297); type: functional
T7 sequence (Q9GZU7 whole entry): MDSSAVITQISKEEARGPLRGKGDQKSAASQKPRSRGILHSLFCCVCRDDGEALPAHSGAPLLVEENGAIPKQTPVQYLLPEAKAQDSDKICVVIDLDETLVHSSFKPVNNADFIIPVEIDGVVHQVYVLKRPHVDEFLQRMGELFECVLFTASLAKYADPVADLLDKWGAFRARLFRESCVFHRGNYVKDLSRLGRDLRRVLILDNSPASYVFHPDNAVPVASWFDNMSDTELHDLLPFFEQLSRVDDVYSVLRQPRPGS

Estrogen receptor beta [19] = molecular target: T6, Estrogen receptor beta
Estrogen receptor = molecular target: T8, Estrogen receptor (Homo sapiens, UniProt P03372);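 note: potency for inhibiting coactivator peptide recruitment to the receptor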
T8 sequence (P03372 whole entry): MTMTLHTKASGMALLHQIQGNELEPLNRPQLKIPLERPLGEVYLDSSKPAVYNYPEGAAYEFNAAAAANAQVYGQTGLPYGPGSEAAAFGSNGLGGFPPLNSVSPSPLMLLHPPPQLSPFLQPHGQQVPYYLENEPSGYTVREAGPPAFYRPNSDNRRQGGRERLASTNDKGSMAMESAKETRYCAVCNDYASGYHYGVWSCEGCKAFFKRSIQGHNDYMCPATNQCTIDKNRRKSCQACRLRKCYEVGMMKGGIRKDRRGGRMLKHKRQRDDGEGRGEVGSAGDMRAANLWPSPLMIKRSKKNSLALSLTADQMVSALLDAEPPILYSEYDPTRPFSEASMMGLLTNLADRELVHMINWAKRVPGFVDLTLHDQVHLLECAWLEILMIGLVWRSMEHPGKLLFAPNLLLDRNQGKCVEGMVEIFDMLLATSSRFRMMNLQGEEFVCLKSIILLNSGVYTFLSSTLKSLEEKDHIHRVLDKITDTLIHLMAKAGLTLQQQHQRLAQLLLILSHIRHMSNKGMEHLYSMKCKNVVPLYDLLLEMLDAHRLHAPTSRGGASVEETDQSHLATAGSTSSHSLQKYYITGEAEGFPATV

C-C chemokine receptor type 6, sequence (P51684 whole entry): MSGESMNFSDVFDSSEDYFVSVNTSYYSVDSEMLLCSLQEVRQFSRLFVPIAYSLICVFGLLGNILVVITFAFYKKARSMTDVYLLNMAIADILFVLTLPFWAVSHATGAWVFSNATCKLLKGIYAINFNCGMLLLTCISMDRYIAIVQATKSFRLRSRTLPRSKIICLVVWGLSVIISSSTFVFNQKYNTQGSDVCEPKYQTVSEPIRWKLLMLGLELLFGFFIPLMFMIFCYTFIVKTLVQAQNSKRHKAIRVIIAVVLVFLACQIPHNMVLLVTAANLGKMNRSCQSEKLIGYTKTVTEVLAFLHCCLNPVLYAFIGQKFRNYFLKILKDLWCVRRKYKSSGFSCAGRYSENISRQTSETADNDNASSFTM

With O=[N+]([O-])c1cc(-c2ncccn2)c([N+](=O)[O-])s1 the IC50 [1] was 24 µM (inactive), the IC50 (Beta-galactosidase) was > 66.6 µM (inactive) and the IC50 [2] was 7.48 µM (active). The IC50 [3] was 6.92 µM (active), the EC50 [4] was 6.64 µM (active) and the CC50 [5] was 23.2 µM (active). For the same compound, the IC50 (Galanin receptor type 2) was 8.96 µM (active).

With Cc1cccc(C)c1NC(=O)C[N+](C)(C)CC(O)COc1cccc2ccccc12 (configuration not stated) the CC50 [6] was 22 µM (active).

With Cc1cccc(/C=C/c2nc(O)c3ccccc3n2)c1 the “Absolute IC50 (XBP1)” value (X-box-binding protein 1) was 10 µM.

For Cc1nc(SCC(=O)Nc2ccc3c(c2)OCCO3)c2oc3ccccc3c2n1, the EC50 [7] was > 50 µM (not active).

For CC1CCN(c2nc3ccc(C(=O)O)cc3s2)CC1, the EC50 [8] was 0.268 µM (active), the EC50 (HEK293 [9]) was 12.5 µM (not active) and the EC50 (HEK293 [10]) was 13.1 µM (inactive). For the same compound, the IC50 (Jurkat) was 1.82 µM (active), the IC50 [11] was > 80 µM (inactive) and the EC50 (HT-1080) was > 50 µM (not active). The EC50 [12] was 7.86 µM (active), the AC50 [13] was 1.25 µM (active) and the EC50 [14] was > 8 µM (not active).

With O=C(N/N=C/c1ccncc1)c1ccccc1 the EC50 [15] was > 55.7 µM (not active) and the EC50 [16] was > 55.7 µM (not active).

In the case of COc1cccc(NC(=O)N(CCN(C)C)C(C)c2cccnc2)c1 (configuration not stated), the AC50 (HeLa) is reported as 123 µM (active).

In the case of COc1ccc2c(c1)c(=O)oc1cc(OCC(=O)NC3CCCCC3)ccc12, the IC50 (Bcl-2-like protein 10) is reported as 34.6 µM (active), the IC50 (Estrogen receptor beta [17]) is reported as > 50 µM (not active) and the IC50 [18] is reported as 6.74 µM (active). The IC50 (Estrogen receptor beta [19]) was 7.51 µM (active) and the IC50 (Estrogen receptor) was 17.9 µM (active).
